Test results reported in patent US8697742B2, “BCRP/ABCG2 inhibitor” (Kabushiki Kaisha Yakult Honsha, priority 2005, dated 2014).
In brackets after ≈: the same amount, converted by molar mass. Where a name gives a salt, the structure may show the parent alone. Read-outs that look alike come from different tables or passages of the source. Values belong to the molecule of their own block, whether it stands above or below them.

Assays:
HCT116/BCRP cells = test: Effect of overcoming anticancer agent resistance in vivo, HCT116/BCRP tumour in nude mice; design: species or system human; settings: day 21; for Tumor weight Mean ± S.D.: BALB/c nude mice; for Tumor growth inhibition ratio IR: vs control group
From the text: A solvent was solely administered to a control group. On the day 21 from the start of administration, a tumor was extirpated from each mice and weighed, and the tumor growth inhibition ratio IR (%) was derived from the following equation: Tumor growth inhibition ratio IR(%)=(1−average tumor weight of each administration group/average tumor weight of control group)×100.

A549/SN-38-4 cells = test: Effect of overcoming SN-38 resistance of BCRP-expressing A549/SN-38-4 cells; assay type: cell-based, human; settings: concentration for 50% reduction of relative SN-38 resistance value (IC50 A549/SN-38-4 / IC50 A549), 48 hours culture with SN-38; for EC50: Homo sapiens, A549, 48 h, read-out: Effect of overcoming resistance EC50
Experimental: The human lung cancer A549 cells or the A549/SN-38-4 cells were suspended in a Ham's F-12 medium containing 10% FBS, 100 U/mL of penicillin, and 100 μg/mL of streptomycin (10% FBS/Ham's F-12), and the resultant suspension was inoculated into a 96-well microplate (2×10^3 cells/50 μL/well), followed by culturing at 5% CO2 and 37° C. overnight. […] After completion of culturing, the number of viable cells was counted by use of a viable cell counting reagent [TetraColor ONE (trademark), product of Seikagaku Corporation] according to the attached instruction manual. […] The greater the relative resistance value, the higher the level of acquired resistance.

P388 cells = test: Sensitivity of parental P388 cells to SN-38; assay type: cell-based, mouse; settings: with SN-38, 48 hours, FIG. 1
Experimental: (§1) Mouse leukemia P388 cells or human BCRP gene-transduced P388 cells (P388/BCRP cells) (see JP-A-2003-063989) were suspended in 10% FBS/RPMI1640 containing 2-mercaptethanol (50 μM), and the resultant suspension was added to a 96-well microplate (1×10^4 cells/50 μL/well). Thereafter, a solution of each of Compounds 1, 14, 21, 31, 39, and 41 of the present invention and SN-38 in 100 FBS/RPNI1640 (25 μL) was added to each of the wells, followed by culturing at 5% CO2 and 37° C. for 48 hours. After completion of culturing, the number of viable cells was counted by use of TetraColor ONE according to the manufacture's instruction manual.

P388/BCRP cells = test: Effect of overcoming SN-38 resistance of human BCRP gene-transduced P388 cells; assay type: cell-based, mouse; settings: with SN-38, 48 hours, FIG. 1
Experimental: as §1

K562/MDR cells = test: Effect on paclitaxel (multidrug) resistance of human MDR1 gene-transduced K562 cells; assay type: cell-based; settings: for EC50: Homo sapiens, read-out: Effect of overcoming resistance EC50
From the text: After completion of culturing, the number of viable cells was counted by use of TetraColor ONE according to the manufacture's instruction manual.

[1] = compound 12.5 mg/kg/day + CPT-11 10 mg/kg/day i.v. once a day for seven days
[2] = compound 25 mg/kg/day + CPT-11 10 mg/kg/day i.v. once a day for seven days
[3] = concentration for 50% reduction of relative paclitaxel resistance value, K562/MDR vs K562, 72 hours
[4] = compound 6.3 mg/kg/day + CPT-11 10 mg/kg/day i.v. once a day for seven days

Effect of overcoming resistance EC50 (A549/SN-38-4 cells; hydrochloride): 0.037 µg/mL
Molecule: COc1ccc(/C(C#N)=C/c2ccncc2)cc1OC [Compound 31, (Z)-2-(3,4-dimethoxy-phenyl)-3-pyridin-4-yl-acrylonitrile hydrochloride]
Tumor weight Mean ± S.D. (HCT116/BCRP cells; [1]): 0.74 ± 0.06 g | Tumor growth inhibition ratio IR (HCT116/BCRP cells; [1]): 46.6% | Tumor weight Mean ± S.D. (HCT116/BCRP cells; [2]): 0.67 ± 0.18 g | Tumor growth inhibition ratio IR (HCT116/BCRP cells; [2]): 51.1%

EC50 (K562/MDR cells; [3]): > 5 µg/mL | EC50 (A549/SN-38-4 cells): 0.02 µg/mL (≈ 0.0531 µM)
Molecule: COc1ccc(/C(C#N)=C/c2ccc(-c3cccc([N+](=O)[O-])c3)o2)cc1OC [Compound 21, (Z)-2-(3,4-dimethoxy-phenyl)-3-[5-(3-nitro-phenyl)-furan-2-yl]-acrylonitrile]
Effect on sensitivity of the P388 cells to SN-38 (P388 cells): did not affect the sensitivity | Effect of overcoming the SN-38 resistance of the P388/BCRP cells (P388/BCRP cells): potent effect of overcoming the SN-38 resistance

EC50 (K562/MDR cells; [3]): > 5 µg/mL | EC50 (A549/SN-38-4 cells): 0.22 µg/mL (≈ 0.562 µM)
Molecule: COc1ccc(/C(C#N)=C/c2cnc(SC)n2Cc2ccccc2)cc1OC [Compound 42, (Z)-3-(3-benzyl-2-methylsulfanyl-3H-imidazol-4-yl)-2-(3,4-dimethoxy-phenyl)-acrylonitrile]

EC50 (K562/MDR cells; [3]): > 5 µg/mL | Effect of overcoming resistance EC50 (A549/SN-38-4 cells): 0.058 µg/mL
Molecule: COc1ccc(/C(C#N)=C/c2cccnc2)cc1OC [Compound 34, (Z)-2-(3,4-dimethoxy-phenyl)-3-pyridin-3-yl-acrylonitrile]

EC50 (K562/MDR cells; [3]): > 5 µg/mL | EC50 (A549/SN-38-4 cells): 0.075 µg/mL (≈ 0.212 µM)
Molecule: COc1ccc(/C(C#N)=C/c2ccc(N3CCC(O)CC3)o2)cc1OC [Compound 26, (Z)-2-(3,4-dimethoxy-phenyl)-3-[5-(4-hydroxy-piperidin-1-yl)-furan-2-yl]-acrylonitrile]

Molecule: COc1ccc(/C(C#N)=C/c2ccc(N3CCN(CCO)CC3)s2)cc1OC [Compound 14, (Z)-2-(3,4-dimethoxy-phenyl)-3-{5-[4-(2-hydroxy-ethyl)-piperazin-1-yl]-thiophen-2-yl}-acrylonitrile hydrochloride]
Tumor weight Mean ± S.D. (HCT116/BCRP cells; [1]): 0.79 ± 0.14 g | Tumor growth inhibition ratio IR (HCT116/BCRP cells; [1]): 37.7% | Tumor weight Mean ± S.D. (HCT116/BCRP cells; [2]): 0.70 ± 0.10 g | Tumor growth inhibition ratio IR (HCT116/BCRP cells; [2]): 45.1% | EC50 (K562/MDR cells; K562, 72 h): > 5 µg/mL | Effect of overcoming resistance EC50 (A549/SN-38-4 cells; hydrochloride): 0.087 µg/mL

EC50 (K562/MDR cells; [3]): > 5 µg/mL | EC50 (A549/SN-38-4 cells): 0.014 µg/mL (≈ 0.0466 µM)
Molecule: COc1ccc(/C(C#N)=C/c2ccc([N+](=O)[O-])o2)cc1OC [Compound 19, (Z)-2-(3,4-dimethoxy-phenyl)-3-(5-nitro-furan-2-yl)-acrylonitrile]

EC50 (K562/MDR cells; [3]): > 5 µg/mL | Effect of overcoming resistance EC50 (A549/SN-38-4 cells): 0.2 µg/mL
Molecule: COc1ccc(/C(C#N)=C/c2ccc(N3CCN(C)CC3)o2)cc1OC [Compound 27, (Z)-2-(3,4-dimethoxy-phenyl)-3-[5-(4-methyl-piperazin-1-yl)-furan-2-yl]-acrylonitrile]

EC50 (K562/MDR cells; [3]): > 5 µg/mL | EC50 (A549/SN-38-4 cells): 0.02 µg/mL (≈ 0.0751 µM)
Molecule: COc1ccc(/C(C#N)=C/c2ccncc2)cc1OC [Compound 30, (Z)-2-(3,4-dimethoxy-phenyl)-3-pyridin-4-yl-acrylonitrile]

EC50 (K562/MDR cells; [3]): > 5 µg/mL | EC50 (A549/SN-38-4 cells): 0.028 µg/mL
Molecule: COc1ccc(/C(C#N)=C/c2ccncc2)cc1OC.CS(=O)(=O)O [Compound 32, (Z)-2-(3,4-dimethoxy-phenyl)-3-pyridin-4-yl-acrylonitrile methanesulfonate]
Tumor weight Mean ± S.D. (HCT116/BCRP cells; [4]): 0.75 ± 0.24 g | Tumor growth inhibition ratio IR (HCT116/BCRP cells; [4]): 40.8% | Tumor weight Mean ± S.D. (HCT116/BCRP cells; [1]): 0.52 ± 0.11 g | Tumor growth inhibition ratio IR (HCT116/BCRP cells; [1]): 59.0%

EC50 (K562/MDR cells; [3]): > 5 µg/mL | EC50 (A549/SN-38-4 cells): 0.16 µg/mL (≈ 0.441 µM)
Molecule: COc1ccc(/C(C#N)=C/c2sc(-c3ccccc3)nc2C)cc1OC [Compound 43, (Z)-2-(3,4-dimethoxy-phenyl)-3-(4-methyl-2-phenyl-thiazol-5-yl)-acrylonitrile]

Effect of overcoming resistance EC50 (A549/SN-38-4 cells; hydrochloride): 0.1 µg/mL
Molecule: COc1ccc(/C=C(\C#N)c2cccnc2)cc1OC [Compound 46, (Z)-3-(3,4-dimethoxy-phenyl)-2-pyridin-3-yl-acrylonitrile hydrochloride]
Tumor weight Mean ± S.D. (HCT116/BCRP cells; [1]): 0.79 ± 0.21 g | Tumor growth inhibition ratio IR (HCT116/BCRP cells; [1]): 37.7% | Tumor weight Mean ± S.D. (HCT116/BCRP cells; [2]): 0.67 ± 0.07 g | Tumor growth inhibition ratio IR (HCT116/BCRP cells; [2]): 47.7%

EC50 (K562/MDR cells; [3]): > 5 µg/mL | Effect of overcoming resistance EC50 (A549/SN-38-4 cells): 0.012 µg/mL
Molecule: COc1ccc(/C(C#N)=C/c2ccc(N3CCCCC3)s2)cc1OC [Compound 4, (Z)-2-(3,4-dimethoxy-phenyl)-3-(5-piperidin-1-yl-thiophen-2-yl)-acrylonitrile]

EC50 (K562/MDR cells; [3]): > 5 µg/mL | EC50 (A549/SN-38-4 cells): 0.075 µg/mL
Molecule: COc1ccc(/C(C#N)=C/c2ccc[nH]2)cc1OC.Cl [Compound 40, (Z)-2-(3,4-dimethoxy-phenyl)-3-(1H-pyrrol-2-yl)-acrylonitrile hydrochloride]

EC50 (K562/MDR cells; [3]): > 5 µg/mL | EC50 (A549/SN-38-4 cells): 0.05 µg/mL (≈ 0.188 µM)
Molecule: COc1ccc(/C=C(\C#N)c2ccccn2)cc1OC [Compound 45, (Z)-3-(3,4-dimethoxy-phenyl)-2-pyridin-2-yl-acrylonitrile]

Molecule: COc1ccc(/C(C#N)=C/c2cnc[nH]2)cc1OC [Compound 41, (Z)-2-(3,4-dimethoxy-phenyl)-3-(3H-imidazol-4-yl)-acrylonitrile]
Effect on sensitivity of the P388 cells to SN-38 (P388 cells): did not affect the sensitivity | Effect of overcoming the SN-38 resistance of the P388/BCRP cells (P388/BCRP cells): potent effect of overcoming the SN-38 resistance | EC50 (K562/MDR cells; [3]): > 5 µg/mL | EC50 (A549/SN-38-4 cells): 0.28 µg/mL (≈ 1.1 µM)

EC50 (K562/MDR cells; [3]): > 5 µg/mL | EC50 (A549/SN-38-4 cells): 0.037 µg/mL (≈ 0.136 µM)
Molecule: COc1ccc(/C=C(\C#N)c2ccsc2)cc1OC [Compound 56, (Z)-3-(3,4-dimethoxy-phenyl)-2-thiophen-3-yl-acrylonitrile]

Effect of overcoming resistance EC50 (A549/SN-38-4 cells; hydrochloride): 0.033 µg/mL
Molecule: COc1ccc(/C(C#N)=C/c2ccc(N3CCN(C)CC3)s2)cc1OC [Compound 13, (Z)-2-(3,4-dimethoxy-phenyl)-3-[5-(4-methyl-piperazin-1-yl)-thiophen-2-yl]-acrylonitrile hydrochloride]
Tumor weight Mean ± S.D. (HCT116/BCRP cells; [1]): 0.87 ± 0.18 g | Tumor growth inhibition ratio IR (HCT116/BCRP cells; [1]): 31.7% | Tumor weight Mean ± S.D. (HCT116/BCRP cells; [2]): 0.83 ± 0.08 g | Tumor growth inhibition ratio IR (HCT116/BCRP cells; [2]): 35.0%

EC50 (K562/MDR cells; [3]): > 5 µg/mL | EC50 (A549/SN-38-4 cells): 0.12 µg/mL (≈ 0.313 µM)
Molecule: COc1ccc(/C(C#N)=C/c2ccc(N3CCN(CCO)CC3)o2)cc1OC [Compound 28, (Z)-2-(3,4-dimethoxy-phenyl)-3-{5-[4-(2-hydroxy-ethyl)-piperazin-1-yl]-furan-2-yl}-acrylonitrile]

Effect of overcoming resistance EC50 (A549/SN-38-4 cells; hydrochloride): 0.058 µg/mL
Molecule: COc1ccc(/C(C#N)=C/c2ccc(-c3cccc(N)c3)o2)cc1OC [Compound 23, (Z)-3-[5-(3-amino-phenyl)-furan-2-yl]-2-(3,4-dimethoxy-phenyl)-acrylonitrile hydrochloride]
Tumor weight Mean ± S.D. (HCT116/BCRP cells; [1]): 1.21 ± 0.17 g | Tumor growth inhibition ratio IR (HCT116/BCRP cells; [1]): 12.3% | Tumor weight Mean ± S.D. (HCT116/BCRP cells; [2]): 0.71 ± 0.11 g | Tumor growth inhibition ratio IR (HCT116/BCRP cells; [2]): 48.8%

Molecule: (Z)-2-(3,4-dimethoxy-phenyl)-3-pyridin-4-yl-acrylonitrile N-oxide [Compound 33]
Effect of overcoming resistance EC50 (K562/MDR cells; [3]): >5 µg/mL | Effect of overcoming resistance EC50 (A549/SN-38-4 cells): 0.52 µg/mL

EC50 (K562/MDR cells; [3]): > 5 µg/mL | EC50 (A549/SN-38-4 cells): 0.013 µg/mL (≈ 0.0365 µM)
Molecule: COc1ccc(/C(C#N)=C/c2ccc(N3CCOCC3)s2)cc1OC [Compound 5, (Z)-2-(3,4-dimethoxy-phenyl)-3-(5-morpholin-4-yl-thiophen-2-yl)-acrylonitrile]
